The text below walks through data of paper PMC12030314, “Biomarker-Driven Pharmacokinetics and Efficacy of Polymyxin B in Critically Ill Patients with XDR-GN Pneumonia” (Pharmaceuticals, 2025).

The nature of series [1]: Nephrotoxicity during PMB therapy. The series is classed as in vivo, human. Here is the method:
Patient characteristics and laboratory data, including age, sex, weight, medical history, Acute Physiology And Chronic Health Evaluation (APACHE) II score, Sequential Organ Failure Assessment (SOFA) score, estimated creatinine clearance, arterial blood gas analysis, life support interventions, infection site, and type of pathogen, were recorded before PMB administration. The anti-infection therapeutic regimen, course, and incidence of PMB-related adverse reactions were recorded during the study. The creatinine clearance rate (CCr) was calculated with the formula: Ccr = (140 − age) × weight (kg)/[72 × serum creatinine (mg/dL)] for male and Ccr = (140 − age) × weight(kg)/[85 × serum creatinine (mg/dL)] for female. Nephrotoxicity was defined as an increase in serum creatinine of ≥0.3 mg/dL within 48 h or an increase in serum creatinine to ≥1.5 times higher than baseline.

The conditions of series [2]: cited from earlier work. The text has this: Colistin (colistin methanesulfonate, CMS) and polymyxin B (PMB) are polymyxins that were approved for clinical use in the 1950s worldwide. Colistin is clinically administered as a prodrug, which requires conversion to the active form in vivo. […] The elimination of colistin is primarily dependent on renal function. Patients with renal impairment are prone to drug accumulation and increased nephrotoxicity risk. PMB is ... || Finally, we cannot rule out the possibility of the potential impacts of other combined drugs on PMB PK and the heterogeneity among the patients in our study. To date, little evidence supports the conclusion that the combined use of other drugs affects PMB PK. Studies have shown that urinary recovery from PMB is low (<5%). […] Further studies examining the nonrenal routes of PMB elimination are warranted, ...

Where a SMILES comes first, the peptide text is derived from it. Bridges are numbered along the chain shown (N, C = ends). [ ]: non-standard residue; d: D form. The star is where a group is joined. X1 = CC[C@H](C)CCCCC(=O)*; Dab = NCC[C@H](N)C(=O)O

In the case of `CC[C@H](C)CCCCC(=O)N[C@@H](CCN)C(=O)N[C@H](C(=O)N[C@@H](CCN)C(=O)N[C@H]1CCNC(=O)[C@H]([C@@H](C)O)NC(=O)[C@H](CCN)NC(=O)[C@H](CCN)NC(=O)[C@H](CC(C)C)NC(=O)[C@@H](Cc2ccccc2)NC(=O)[C@H](CCN)NC1=O)[C@@H](C)O` [PMB, polymyxin B] (X1-[Dab]T[Dab][Dab][Dab][dF]L[Dab][Dab]T; lactam 4-C), the Nephrotoxicity in series [1] (Total (n = 27), serum creatinine increase ≥0.3 mg/dL within 48 h or ≥1.5 times baseline) is 4 (14.81) n (%). Also, the “number of patients who suffered from nephrotoxicity” value in series [1] (when PMB medication was administered, 27 patients) is recorded as “four”. In addition, the urinary recovery in series [2] is on record as less than 5%. The “hepatobiliary metabolism (non-renal clearance)” value in series [2] (in vivo) is recorded as approximately 60%.
